These results are taken from US9572911B2, “Method for decellularization of tissue grafts” (University of Florida Research Foundation, Inc., priority 2013, dated 2017).

The target in this assay is purified laminin-1 (Homo sapiens, UniProt P07942+P11047+P25391). Description: Effects of individual detergents on the neurite-promoting activity of purified laminin. The following applies: dialyzed, neurons 24 hours, FIG. 14. It counts as cell-based. As for the experimental part:
FIG. 14. Effects of individual detergents on the neurite-promoting activity of purified laminin. Purified laminin-1 was mixed with individual detergents as follows: Control (buffer alone), sulfobetaine-10 (125 mM), sulfobetaine-16 (0.6 mM) and […] (0.14%). The mixtures were extensively dialyzed and then were added to tissue culture wells to form a substratum onto which dissociated neurons were seeded. After 24 hours in culture the length of neurites were measured. Data represent the specific activities (ED50) calculated from mean scores from dilution series performed in duplicates in 4 separate experiments
The extracellular matrix of nerve is known to promote the growth of axons. In particular, the basal lamina tubes encasing axons provides a potent stimulus for axonal growth in nerve regeneration. The cryoculture assay used in the experiments described above relies on the structure and growth-promoting activity of the basal lamina. It is well documented that laminin is the major neurite-promoting component of the nerve basal lamina. […] Therefore, tests were performed to examine the effects of individual detergents on purified laminin. Laminin activity was unchanged by SB-10. Exposure to SB-16 reduced laminin activity approximately 50%.

As for `CCCCCCCCCC[N+](C)(C)CCCS(=O)(=O)[O-]` [SB-10, sulfobetaine-10], the “laminin neurite-promoting activity after exposure to detergent” value (SB-10 125 mM, SB-16 0.6 mM, Triton X-200 0.14%) was “unchanged”.
As to `CCCCCCCCCCCCCCCC[N+](C)(C)CCCS(=O)(=O)[O-]` [SB-16, sulfobetaine-16], the “reduction of laminin activity” value (sulfobetaine-16 0.6 mM) is “approximately 50%”.
